From patent publication US20260167620A1, “MULTIFUNCTIONAL COMPOUND CAPABLE OF DEGRADING BTK KINASE, AND COMPOSITION AND USE” (HANGZHOU HEALZEN THERAPEUTICS CO., LTD., priority 2021, published 2026)

Molecular target: T1, BTK (Homo sapiens, UniProt Q06187)
T1 construct: endogenous in cells; host or cells: Mino cells
Assay: BTK degradation activity test in Mino cells (Westernblot or Elisa)
Assay type: cell-based
Details: 24-72 h incubation
Method: The Mino cell line cells are 0.5˜1 million/well in 6-well plates. The compounds are diluted to different concentrations, added to the plate, and after 24-72 h of incubation, the cells are collected. After the cells were lysed, the total protein concentration in each well was determined with a BCA kit. The amount of BTK is determined using the Westernblot or Elisa method.

T1 sequence (Q06187 whole entry): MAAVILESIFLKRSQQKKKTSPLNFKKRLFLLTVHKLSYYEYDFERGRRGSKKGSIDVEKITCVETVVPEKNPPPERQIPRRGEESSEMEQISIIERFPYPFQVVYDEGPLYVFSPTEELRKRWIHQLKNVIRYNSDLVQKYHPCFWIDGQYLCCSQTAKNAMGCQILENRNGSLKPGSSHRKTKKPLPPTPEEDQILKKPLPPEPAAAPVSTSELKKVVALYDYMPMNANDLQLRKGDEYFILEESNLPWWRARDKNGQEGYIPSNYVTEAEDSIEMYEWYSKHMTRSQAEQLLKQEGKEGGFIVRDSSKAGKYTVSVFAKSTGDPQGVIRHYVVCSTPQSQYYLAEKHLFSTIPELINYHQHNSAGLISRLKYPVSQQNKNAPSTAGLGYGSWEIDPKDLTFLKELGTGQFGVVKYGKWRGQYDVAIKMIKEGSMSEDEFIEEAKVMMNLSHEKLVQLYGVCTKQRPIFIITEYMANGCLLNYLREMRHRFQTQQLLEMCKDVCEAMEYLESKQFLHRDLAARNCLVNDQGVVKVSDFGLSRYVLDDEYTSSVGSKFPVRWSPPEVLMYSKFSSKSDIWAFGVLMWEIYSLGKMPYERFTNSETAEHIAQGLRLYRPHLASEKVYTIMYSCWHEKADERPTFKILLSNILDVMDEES

DC50, < 10 nM:
CC(OC(=O)C(C)(C)C)N1C(=O)CCC(N2C(=O)c3ccc(N4CCC(CN5CCC(c6ccc(Nc7nc(N8CCCCC8)nnc7C(N)=O)cc6)CC5)C4)cc3C2=O)C1=O (stereo not shown) [Compound 069, 1-(3-(5-(3-((4-(4-((6-carbamoyl-3-(piperidin-1-yl)-1,2,4-triazin-5-yl)amino)phenyl)piperidin-1-yl)methyl)pyrrolidin-1-yl)-1,3-dioxoisoindolin-2-yl)-2,6-dioxopiperidin-1-yl) ethyl pivalate]
CC(OC(=O)C(C)(C)C)N1C(=O)CCC(N2C(=O)c3ccc(N4CCC(CN5CCC(c6ccc(Nc7nc(N8CCN(C)CC8)nnc7C(N)=O)cc6)CC5)C4)cc3C2=O)C1=O (stereo not shown) [Compound 070, 1-(3-(5-(3-((4-(4-((6-carbamoyl-3-(4-methylpiperazin-1-yl)-1,2,4-triazin-5-yl)amino)phenyl)piperidin-1-yl)methyl)pyrrolidin-1-yl)-1,3-dioxoisoindolin-2-yl)-2,6-dioxopiperidin-1-yl) ethyl pivalate]
CC(OC(=O)C(C)(C)C)N1C(=O)CCC(N2C(=O)c3ccc(N4CCC(CN5CCN(c6ccc(Nc7nc(N8CCCCC8)nnc7C(N)=O)cc6F)CC5)C4)cc3C2=O)C1=O (stereo not shown) [Compound 071, 1-(3-(5-(3-((4-(4-((6-carbamoyl-3-(piperidin-1-yl)-1,2,4-triazin-5-yl)amino)-2-fluorophenyl)piperazin-1-yl)methyl)pyrrolidin-1-yl)-1,3-dioxoisoindolin-2-yl)-2,6-dioxopiperidin-1-yl) ethyl pivalate]
CC(OC(=O)C(C)(C)C)N1C(=O)CCN(c2ccc(N3CCN(CC4CCN(c5ccc(Nc6nc(N7CCCCC7)nnc6C(N)=O)cc5F)CC4)CC3)cc2)C1=O (stereo not shown) [Compound 072, 1-(3-(4-(4-((1-(4-((6-carbamoyl-3-(piperidin-1-yl)-1,2,4-triazin-5-yl)amino)-2-fluorophenyl)piperidin-4-yl)methyl)piperazin-1-yl)phenyl)-2,6-dioxotetrahydropyrimidin-1(2H)-yl) ethyl pivalate]
CC(C)[C@H](N)C(=O)OCN1C(=O)CCC(N2C(=O)c3ccc(N4CCC(CN5CCC(c6ccc(Nc7nc(N8CCCCC8)nnc7C(N)=O)cc6)CC5)C4)cc3C2=O)C1=O (stereo partly drawn) [Compound 073, (3-(5-(3-((4-(4-((6-carbamoyl-3-(piperidin-1-yl)-1,2,4-triazin-5-yl)amino)phenyl)piperidin-1-yl)methyl)pyrrolidin-1-yl)-1,3-dioxoisoindolin-2-yl)-2,6-dioxopiperidin-1-yl) methyl L-valinate]
CC(C)[C@H](N)C(=O)OCN1C(=O)CCC(N2C(=O)c3ccc(N4CCC(CN5CCN(c6ccc(Nc7nc(N8CCCCC8)nnc7C(N)=O)cc6F)CC5)C4)cc3C2=O)C1=O (stereo partly drawn) [Compound 074, (3-(5-(3-((4-(4-((6-carbamoyl-3-(piperidin-1-yl)-1,2,4-triazin-5-yl)amino)-2-fluorophenyl)piperazin-1-yl)methyl)pyrrolidin-1-yl)-1,3-dioxoisoindolin-2-yl)-2,6-dioxopiperidin-1-yl) methyl L-valinate]
NC(=O)c1nnc(N2CCCCC2)nc1Nc1ccc(N2CCN(CC3CCN(c4ccc(N5CCC(=O)NC5=O)cc4)CC3)CC2)c(F)c1 [Compound 080, 5-((4-(4-((1-(4-(2,4-dioxotetrahydropyrimidin-1(2H)-yl)phenyl)piperidin-4-yl)methyl)piperazin-1-yl)-3-fluorophenyl)amino)-3-(piperidin-1-yl)-1,2,4-triazine-6-carboxamide]
NC(=O)c1nnc(N2CCCCC2)nc1Nc1ccc(N2CCC(CN3CCN(c4ccc(-c5ccc(=O)[nH]n5)cc4C(F)(F)F)CC3)CC2)c(F)c1 [Compound 089, 5-((3-fluoro-4-(4-((4-(4-(6-oxo-1,6-dihydropyridazin-3-yl)-2-(trifluoromethyl)phenyl)piperazin-1-yl)methyl)piperidin-1-yl)phenyl)amino)-3-(piperidin-1-yl)-1,2,4-triazine-6-carboxamide]
CC(=O)N[C@@H]1CCCN(c2nnc(C(N)=O)c(Nc3ccc(N4CCN(CC5CCN(c6ccc(N7CCC(=O)NC7=O)cc6)CC5)CC4)c(F)c3)n2)C1 [Compound 091, (R)-3-(3-acetamidopiperidin-1-yl)-5-((4-(4-((1-(4-(2,4-dioxotetrahydropyrimidin-1(2H)-yl)phenyl)piperidin-4-yl)methyl)piperazin-1-yl)-3-fluorophenyl)amino)-1,2,4-triazine-6-carboxamide]
CC(=O)N[C@@H]1CCCN(c2nnc(C(N)=O)c(Nc3ccc(N4CCN(CC5CCN(c6ccc(C(=O)NC7CCC(=O)NC7=O)c(F)c6)CC5)CC4)c(F)c3)n2)C1 (stereo partly drawn) [Compound 093, 3-((R)-3-acetamidopiperidin-1-yl)-5-((4-(4-((1-(4-((2,6-dioxopiperidin-3-yl)carbamoyl)-3-fluorophenyl)piperidin-4-yl)methyl)piperazin-1-yl)-3-fluorophenyl)amino)-1,2,4-triazine-6-carboxamide]
CC(=O)N[C@@H]1CCCN(c2nnc(C(N)=O)c(Nc3ccc(N4CCN(CC5CCN(c6ncc(-c7ccc(=O)[nH]n7)cc6C(F)(F)F)CC5)CC4)c(F)c3)n2)C1 [Compound 094, (R)-3-(3-acetamidopiperidin-1-yl)-5-((3-fluoro-4-(4-((1-(5-(6-oxo-1,6-dihydropyridazin-3-yl)-3-(trifluoromethyl)pyridin-2-yl)piperidin-4-yl)methyl)piperazin-1-yl)phenyl)amino)-1,2,4-triazine-6-carboxamide]
CC(=O)N[C@@H]1CCCN(c2nnc(C(N)=O)c(Nc3ccc(N4CCN(CC5CCN(c6ccc(-c7ccc(=O)[nH]n7)cc6C(F)(F)F)CC5)CC4)c(F)c3)n2)C1 [Compound 095, (R)-3-(3-acetamidopiperidin-1-yl)-5-((3-fluoro-4-(4-((1-(4-(6-oxo-1,6-dihydropyridazin-3-yl)-2-(trifluoromethyl)phenyl)piperidin-4-yl)methyl)piperazin-1-yl)phenyl)amino)-1,2,4-triazine-6-carboxamide]
CC(=O)N[C@@H]1CCCN(c2nnc(C(N)=O)c(Nc3ccc(N4CCN(CC5CCN(c6ccc(NC7CCC(=O)NC7=O)nc6)CC5)CC4)c(F)c3)n2)C1 (stereo partly drawn) [Compound 096, 3-((R)-3-acetamidopiperidin-1-yl)-5-((4-(4-((1-(6-((2,6-dioxopiperidin-3-yl)amino)pyridin-3-yl)piperidin-4-yl)methyl)piperazin-1-yl)-3-fluorophenyl)amino)-1,2,4-triazine-6-carboxamide]
CC(=O)N[C@@H]1CCCN(c2nnc(C(N)=O)c(Nc3ccc(N4CCN(CC5CCN(c6ccc(NC7CCC(=O)NC7=O)c(F)c6)CC5)CC4)c(F)c3)n2)C1 (stereo partly drawn) [Compound 097, 3-((R)-3-acetamidopiperidin-1-yl)-5-((4-(4-((1-(4-((2,6-dioxopiperidin-3-yl)amino)-3-fluorophenyl)piperidin-4-yl)methyl)piperazin-1-yl)-3-fluorophenyl)amino)-1,2,4-triazine-6-carboxamide]
NC(=O)c1nnc(N2CCOCC2)nc1Nc1ccc(N2CCN(CC3CCN(c4ccc(N5CCC(=O)NC5=O)cc4)CC3)CC2)c(F)c1 [Compound 099, 5-((4-(4-((1-(4-(2,4-dioxotetrahydropyrimidin-1(2H)-yl)phenyl)piperidin-4-yl)methyl)piperazin-1-yl)-3-fluorophenyl)amino)-3-morpholino-1,2,4-triazine-6-carboxamide]
NC(=O)c1nnc(N2CCOCC2)nc1Nc1ccc(N2CCN(CC3CCN(c4ccc(C(=O)NC5CCC(=O)NC5=O)c(F)c4)CC3)CC2)c(F)c1 (stereo not shown) [Compound 101, 5-((4-(4-((1-(4-((2,6-dioxopiperidin-3-yl)carbamoyl)-3-fluorophenyl)piperidin-4-yl)methyl)piperazin-1-yl)-3-fluorophenyl)amino)-3-morpholino-1,2,4-triazine-6-carboxamide]
NC(=O)c1nnc(N2CCOCC2)nc1Nc1ccc(N2CCN(CC3CCN(c4ncc(-c5ccc(=O)[nH]n5)cc4C(F)(F)F)CC3)CC2)c(F)c1 [Compound 102, 5-((3-fluoro-4-(4-((1-(5-(6-oxo-1,6-dihydropyridazin-3-yl)-3-(trifluoromethyl)pyridin-2-yl)piperidin-4-yl)methyl)piperazin-1-yl)phenyl)amino)-3-morpholino-1,2,4-triazine-6-carboxamide]
NC(=O)c1nnc(N2CCOCC2)nc1Nc1ccc(N2CCN(CC3CCN(c4ccc(-c5ccc(=O)[nH]n5)cc4C(F)(F)F)CC3)CC2)c(F)c1 [Compound 103, 5-((3-fluoro-4-(4-((1-(4-(6-oxo-1,6-dihydropyridazin-3-yl)-2-(trifluoromethyl)phenyl)piperidin-4-yl)methyl)piperazin-1-yl)phenyl)amino)-3-morpholino-1,2,4-triazine-6-carboxamide]
NC(=O)c1nnc(N2CCOCC2)nc1Nc1ccc(N2CCN(CC3CCN(c4ccc(NC5CCC(=O)NC5=O)nc4)CC3)CC2)c(F)c1 (stereo not shown) [Compound 104, 5-((4-(4-((1-(6-((2,6-dioxopiperidin-3-yl)amino)pyridin-3-yl)piperidin-4-yl)methyl)piperazin-1-yl)-3-fluorophenyl)amino)-3-morpholino-1,2,4-triazine-6-carboxamide]
